Experimental data: US9775871B2, “Herbal compositions and methods for treating hepatic disorders” (priority 2007, dated 2017)

System: primary cultures of rat hepatocytes
Assay: Production of free radicals (DCFH-DA fluorescence) after t-BOOH exposure

O=c1c(O)c(-c2ccc(O)c(O)c2)oc2cc(O)cc(O)c12 [Quercetin, quercetin]
Free radicals (%) (5 μM, Table 1, ratio of t-BOOH positive control, positive control of the test): 51.5 ± 2.1% | Free radicals (%) (25 μM, Table 1, ratio of t-BOOH positive control, positive control of the test): 18.8 ± 1.2% | Free radicals (%) (25 μM, Table 2, ratio of t-BOOH control (100), median ± SE): 13.2 ± 5.6 %
